The source of these data is article PMC5196007 (Journal of pharmaceutical and biomedical analysis, 2016).

Where two headings read alike, the source gives them in different places.

Series [1] in a line: Stability of analytes in whole blood samples. It is filed as in vitro ADME, rat. The settings on record: n = 6.
A short description of series [2]: Pharmacokinetic study with co-administration of cocaine and alcohol in rats. The conditions noted are these: 60 mg/kg cocaine IP, 30 min after 1 g/kg alcohol or saline IP, both groups. The format is in vivo, Male Sprague–Darley rats.
Series [3] relates to butyrylcholinesterase (BChE) and liver carboxyesterase-2 (CE-2). The settings on record: in humans; cited from earlier work.
The next series has as its system CE-1. The conditions noted are these: with alcohol co-administration, cited from earlier work.
Where [4] appears, read: Bench top (4 hours, room temperature), high concentration 190–320 ng/ml (1 µM).
[5] abbreviates: Bench top (4 hours, room temperature), low concentration 1.9–3.2 ng/ml (0.01 µM).
[6] abbreviates: Bench top (4 hours, room temperature), medium concentration 95–160 ng/ml (0.5 µM).
Where [7] appears, read: Freeze-thaw (4 cycles), high concentration 190–320 ng/ml (1 µM).
Where [8] appears, read: Freeze-thaw (4 cycles), low concentration 1.9–3.2 ng/ml (0.01 µM).
[9] abbreviates: Freeze-thaw (4 cycles), medium concentration 95–160 ng/ml (0.5 µM).
Where [10] appears, read: Long-term (−70°C, 4 months), high concentration 190–320 ng/ml (1 µM).
Where [11] appears, read: Long-term (−70°C, 4 months), low concentration 1.9–3.2 ng/ml (0.01 µM).
Setting [12] is: Long-term (−70°C, 4 months), medium concentration 95–160 ng/ml (0.5 µM).

Take `CN1[C@H]2CC[C@@H]1[C@@H](C(=O)O)[C@@H](OC(=O)c1ccccc1)C2` [BE, benzoylecgonine]: the “Stability Bias (%)” value in series [1] (setting [4]) is 1.7%; in series [1] (setting [5]) it was −0.5%; in series [1] (setting [6]), 0.7%; in series [1] (setting [7]), 3.4%; in series [1] (setting [8]) it was −0.9%; in series [1] (setting [9]), 5.5%. Also, the “Stability Bias (%)” value in series [1] (setting [10]) is 3.8%; in series [1] (setting [11]), −1.4%; in series [1] (setting [12]), 2.2%.

Regarding `COC(=O)[C@@H]1[C@H]2CC[C@@H](C[C@@H]1O)N2C` [EME, ecgonine methyl ester], the “Stability Bias (%)” value in series [1] (setting [4]) is recorded as 0.3%; in series [1] (setting [5]), −9.6%; in series [1] (setting [6]), 5.9%; in series [1] (setting [7]), 4.0%; in series [1] (setting [8]) it was 2.1%; in series [1] (setting [9]), 4.2%. The “Stability Bias (%)” value is reported as 3.5% in series [1] (setting [10]), −3.1% in series [1] (setting [11]) and 6.3% in series [1] (setting [12]).

Regarding `COC(=O)[C@H]1[C@@H](O)C[C@@H]2CC[C@H]1N2` [NEME, norecgonine methyl ester], the “Stability Bias (%)” value in series [1] (setting [4]) is reported as −2.2%; in series [1] (setting [5]), −14.3%; in series [1] (setting [6]) it was −1.5%; in series [1] (setting [7]), 0.1%; in series [1] (setting [8]), −12.8%; in series [1] (setting [9]), −5.4%. Further, the entries for the “Stability Bias (%)” value in series [1] (setting [10]), in series [1] (setting [11]) and in series [1] (setting [12]) were −8.7%, −13.0% and −1.7%, respectively.

For `CCOC(=O)[C@H]1[C@@H](O)C[C@@H]2CC[C@H]1N2` [NEEE, norecgonine ethyl ester], the “Stability Bias (%)” value is 3.7% in series [1] (setting [4]); 1.4% in series [1] (setting [5]); 2.4% in series [1] (setting [6]); 6.5% in series [1] (setting [7]); 1.2% in series [1] (setting [8]); 3.3% in series [1] (setting [9]). The results for the “Stability Bias (%)” value in series [1] (setting [10]), in series [1] (setting [11]) and in series [1] (setting [12]) were −11.9%, −1.3% and −0.2%, respectively.

For the compound `COC(=O)[C@H]1[C@@H](OC(=O)c2ccccc2)C[C@@H]2CC[C@H]1N2C` [Cocaine], the “Stability Bias (%)” value is on record as −6.7% in series [1] (setting [4]); 2.3% in series [1] (setting [5]); 0.3% in series [1] (setting [6]); −4.7% in series [1] (setting [7]); 2.8% in series [1] (setting [8]); −0.7% in series [1] (setting [9]). In addition, the figures for the “Stability Bias (%)” value in series [1] (setting [10]), in series [1] (setting [11]) and in series [1] (setting [12]) were −3.1%, −0.4% and 3.1%, respectively. In series [2], the highest blood concentration is recorded as ~ 2400 ng/ml. For the same compound, the “time of highest blood concentration after the injection of cocaine” value in series [2] came to 20 min. Besides, the “fraction of cocaine hydrolyzed to ecgonine methyl ester (EME)” value in series [3] was “approximately 40%”. Moreover, the “fraction of cocaine converted to cocaethylene through transesterification” value in the series with CE-1 (intravenous cocaine) is listed as ~ 24%; with CE-1 (oral cocaine), ~ 34%; with CE-1 (smoked cocaine) it was ~ 18%.

As for `COC(=O)[C@H]1[C@@H](OC(=O)c2ccccc2)C[C@@H]2CC[C@H]1N2` [Norcocaine, norcocaine], the “Stability Bias (%)” value is listed as 0.6% in series [1] (setting [4]); −1.1% in series [1] (setting [5]); 3.5% in series [1] (setting [6]); −1.2% in series [1] (setting [7]); −1.0% in series [1] (setting [8]); −0.2% in series [1] (setting [9]). The “Stability Bias (%)” value is reported as −1.4% in series [1] (setting [10]), −2.9% in series [1] (setting [11]) and 2.2% in series [1] (setting [12]).

`CCOC(=O)[C@H]1[C@@H](OC(=O)c2ccccc2)C[C@@H]2CC[C@H]1N2` [Norcocaethylene, norcocaethylene]: the “Stability Bias (%)” value in series [1] (setting [4]) was −2.2%; in series [1] (setting [5]), −0.2%; in series [1] (setting [6]) it was −0.9%; in series [1] (setting [7]), −6.4%; in series [1] (setting [8]), 0.1%; in series [1] (setting [9]) it was −4.4%. The figures for the “Stability Bias (%)” value in series [1] (setting [10]), in series [1] (setting [11]) and in series [1] (setting [12]) were 2.8%, −1.0% and −1.3%, respectively.

On to `CCOC(=O)[C@@H]1C2CCC(C[C@@H]1OC(=O)c1ccccc1)N2C` (stereo partly drawn) [Cocaethylene, cocaethylene], for which the “Stability Bias (%)” value in series [1] (setting [4]) was 0.2%; in series [1] (setting [5]) it was 1.7%; in series [1] (setting [6]) it was −2.1%; in series [1] (setting [7]), −4.1%; in series [1] (setting [8]) it was 0.7%; in series [1] (setting [9]), −3.7%. Besides, the “Stability Bias (%)” value in series [1] (setting [10]) is −0.6%; in series [1] (setting [11]), 3.7%; in series [1] (setting [12]), −1.8%.

`CCOC(=O)[C@@H]1[C@H]2CC[C@@H](C[C@@H]1O)N2C` [EEE, ecgonine ethyl ester]: the “Stability Bias (%)” value in series [1] (setting [4]) is reported as 6.8%; in series [1] (setting [5]), 1.2%; in series [1] (setting [6]), −4.4%; in series [1] (setting [7]), 9.4%; in series [1] (setting [8]) it was −3.2%; in series [1] (setting [9]), −9.3%. Moreover, the entries for the “Stability Bias (%)” value in series [1] (setting [10]), in series [1] (setting [11]) and in series [1] (setting [12]) were −5.2%, −2.2% and −5.2%, respectively.
